Assay results taken from the supplement of paper PMC8253809.

Key:
DIPGX29 [1] = H3.3 K27M diffuse intrinsic pontine glioma line; test: EC50 (inflection of fitted growth-inhibition curve) (log10 M)
How it was run: (§1)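 Patient-derived pHGG/DIPG cell lines and astrocyte controls were grown on 1% Geltrex-coated 384-well plates and exposed by pin tool to a 10-point threefold dilution series (mean top concentration 35 μM), in triplicate. Exposure was 7 days (iAstro 3 days) at 37 °C, 5% CO2. CellTiter-Glo luminescence was log2-transformed, normalised per plate to % activity between negative (solvent) and positive control wells, and pooled. EC50 and maximal response (yFin) come from the lowest-AICc three- or four-parameter log-logistic fit.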

DIPGX37 [2] = H3.3 K27M diffuse intrinsic pontine glioma line; test: as above
How it was run: as §1

DIPGX7 [3] = H3.3 K27M diffuse intrinsic pontine glioma line; test: as above
How it was run: as §1

DIPGX9 [4] = diffuse intrinsic pontine glioma line; test: as above
How it was run: as §1

HGGX2 [5] = paediatric high-grade glioma line; test: as above
How it was run: as §1

HGGX42 [6] = H3.3 G34R paediatric high-grade glioma line; test: as above
How it was run: as §1

HGGX6 [7] = H3.3 G34R paediatric high-grade glioma line; test: as above
How it was run: as §1

SUDIPGXIX [8] = diffuse intrinsic pontine glioma line; test: as above
How it was run: as §1

SUDIPGXXI [9] = diffuse intrinsic pontine glioma line; test: as above
How it was run: as §1

iAstro [10] = astrocyte control; test: as above
How it was run: as §1

DIPGX29 [11] = test: maximal growth inhibition (yFin) relative to DMSO / staurosporine; higher = more efficacious
How it was run: as §1

DIPGX37 [12] = test: as above
How it was run: as §1

DIPGX7 [13] = test: as above
How it was run: as §1

DIPGX9 [14] = test: as above
How it was run: as §1

HGGX2 [15] = test: as above
How it was run: as §1

HGGX42 [16] = test: as above
How it was run: as §1

HGGX6 [17] = test: as above
How it was run: as §1

SUDIPGXIX [18] = test: as above
How it was run: as §1

SUDIPGXXI [19] = test: as above
How it was run: as §1

iAstro [20] = test: as above
How it was run: as §1

DIPGX29 [21] = test: area under dose-response curve of % growth inhibition (log2 RLU vs DMSO / staurosporine), 1e-11 to 1e-4 M (% x log10 M); higher = more growth inhibition
How it was run: (§2)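 On 1% Geltrex-coated 384-well plates, patient-derived pHGG/DIPG cell lines and astrocytes were treated in triplicate across 10 threefold dilutions (mean top concentration 35 μM) for 7 days, with iAstro treated for 3 days, at 37 °C, 5% CO2. Log2-transformed CellTiter-Glo luminescence was normalised per plate to % activity between solvent and positive controls. Area under the curve was obtained by the trapezoid rule from a log-logistic fit, or from a smoothing spline when that fit failed.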

DIPGX37 [22] = test: as above
How it was run: as §2

DIPGX7 [23] = test: as above
How it was run: as §2

DIPGX9 [24] = test: as above
How it was run: as §2

HABS [25] = astrocyte control; test: as above
How it was run: as §2

HGGX2 [26] = test: as above
How it was run: as §2

HGGX39 = paediatric high-grade glioma line; test: as above
How it was run: as §2

HGGX42 [27] = test: as above
How it was run: as §2

HGGX6 [28] = test: as above
How it was run: as §2

SUDIPGIV = diffuse intrinsic pontine glioma line; test: as above
How it was run: as §2

SUDIPGVI = diffuse intrinsic pontine glioma line; test: as above
How it was run: as §2

SUDIPGXIII = diffuse intrinsic pontine glioma line; test: as above
How it was run: as §2

SUDIPGXIX [29] = test: as above
How it was run: as §2

SUDIPGXVII [30] = diffuse intrinsic pontine glioma line; test: as above
How it was run: as §2

SUDIPGXXI [31] = test: as above
How it was run: as §2

iAstro [32] = test: as above
How it was run: as §2

HABS [33] = test: EC50 (inflection of fitted growth-inhibition curve) (log10 M)
How it was run: as §1

SUDIPGXVII [34] = test: as above
How it was run: as §1

HABS [35] = test: maximal growth inhibition (yFin) relative to DMSO / staurosporine; higher = more efficacious
How it was run: as §1

SUDIPGXVII [36] = test: as above
How it was run: as §1

Compound | EC50 (log10 M) (DIPGX29 [1]) | EC50 (log10 M) (DIPGX37 [2]) | EC50 (log10 M) (DIPGX7 [3]) | EC50 (log10 M) (DIPGX9 [4]) | EC50 (log10 M) (HGGX2 [5]) | EC50 (log10 M) (HGGX42 [6]) | EC50 (log10 M) (HGGX6 [7]) | EC50 (log10 M) (SUDIPGXIX [8]) | EC50 (log10 M) (SUDIPGXXI [9]) | EC50 (log10 M) (iAstro [10]) | maximal growth inhibition (DIPGX29 [11]) | maximal growth inhibition (DIPGX37 [12]) | maximal growth inhibition (DIPGX7 [13]) | maximal growth inhibition (DIPGX9 [14]) | maximal growth inhibition (HGGX2 [15]) | maximal growth inhibition (HGGX42 [16]) | maximal growth inhibition (HGGX6 [17]) | maximal growth inhibition (SUDIPGXIX [18]) | maximal growth inhibition (SUDIPGXXI [19]) | maximal growth inhibition (iAstro [20]) | area under dose-response curve (DIPGX29 [21]) | area under dose-response curve (DIPGX37 [22]) | area under dose-response curve (DIPGX7 [23]) | area under dose-response curve (DIPGX9 [24]) | area under dose-response curve (HABS [25]) | area under dose-response curve (HGGX2 [26]) | area under dose-response curve (HGGX39) | area under dose-response curve (HGGX42 [27]) | area under dose-response curve (HGGX6 [28]) | area under dose-response curve (SUDIPGIV) | area under dose-response curve (SUDIPGVI) | area under dose-response curve (SUDIPGXIII) | area under dose-response curve (SUDIPGXIX [29]) | area under dose-response curve (SUDIPGXVII [30]) | area under dose-response curve (SUDIPGXXI [31]) | area under dose-response curve (iAstro [32]) | EC50 (log10 M) (HABS [33]) | EC50 (log10 M) (SUDIPGXVII [34]) | maximal growth inhibition (HABS [35]) | maximal growth inhibition (SUDIPGXVII [36])
CC(C)N(CCCNC(=O)Nc1ccc(C(C)(C)C)cc1)C[C@H]1O[C@@H](n2cc(Br)c3c(N)ncnc32)[C@H](O)[C@@H]1O [SGC0946] | -4.49 | -4.52 | -4.86 | -4.79 | -4.58 | -4.53 | -4.77 | -4.54 | -4.77 | -4.87 | 100% | 65.1% | 35.5% | 30.4% | 100% | 102% | 43% | 107% | 107% | 25.3% | 58.4 | 56.4 | 54 | 24.1 | 8.16 | 58.5 | 14.8 | 66.7 | 33.2 | 11.6 | 20 | 40.5 | 57.8 | 27.7 | 82.6 | 21.5 |  |  |  | 
CO[C@H]1C[C@@H]2CC[C@@H](C)[C@@](O)(O2)C(=O)C(=O)N2CCCC[C@H]2C(=O)O[C@H]([C@H](C)C[C@@H]2CC[C@@H](OC(=O)C(C)(CO)CO)[C@H](OC)C2)CC(=O)[C@H](C)/C=C(\C)[C@@H](O)[C@@H](OC)C(=O)[C@H](C)C[C@H](C)/C=C/C=C/C=C/1C [TEMSIROLIMUS] | -4.69 | -4.85 | -4.94 |  | -4.9 |  | -4.79 | -4.89 | -5.31 | -4.98 | 116% | 89.6% | 63.7% |  | 77.4% |  | 58% | 96.2% | 124% | 94.3% | 113 | 123 | 71 | 198 | 88.3 | 86.5 | 91.8 | 121 | 77.9 | 83.2 | 89 | 53.9 | 116 | 40.1 | 201 | 101 | -4.85 | -4.96 | 104% | 24.2%
